Legend:
hTLR7 = target: T1, hTLR7 (Homo sapiens, UniProt Q9NYK1); assay: Activation activity test of hTLR7 (HEK-Blue hTLR7 cells, QUANTI-Blue OD650); assay type: cell-based; details: 24 hours incubation, read-out: TLR7 (EC50)
T1 construct: host or cells: HEK-Blue hTLR7 (HEK293-derived reporter line)
T1 sequence (Q9NYK1 27-1049): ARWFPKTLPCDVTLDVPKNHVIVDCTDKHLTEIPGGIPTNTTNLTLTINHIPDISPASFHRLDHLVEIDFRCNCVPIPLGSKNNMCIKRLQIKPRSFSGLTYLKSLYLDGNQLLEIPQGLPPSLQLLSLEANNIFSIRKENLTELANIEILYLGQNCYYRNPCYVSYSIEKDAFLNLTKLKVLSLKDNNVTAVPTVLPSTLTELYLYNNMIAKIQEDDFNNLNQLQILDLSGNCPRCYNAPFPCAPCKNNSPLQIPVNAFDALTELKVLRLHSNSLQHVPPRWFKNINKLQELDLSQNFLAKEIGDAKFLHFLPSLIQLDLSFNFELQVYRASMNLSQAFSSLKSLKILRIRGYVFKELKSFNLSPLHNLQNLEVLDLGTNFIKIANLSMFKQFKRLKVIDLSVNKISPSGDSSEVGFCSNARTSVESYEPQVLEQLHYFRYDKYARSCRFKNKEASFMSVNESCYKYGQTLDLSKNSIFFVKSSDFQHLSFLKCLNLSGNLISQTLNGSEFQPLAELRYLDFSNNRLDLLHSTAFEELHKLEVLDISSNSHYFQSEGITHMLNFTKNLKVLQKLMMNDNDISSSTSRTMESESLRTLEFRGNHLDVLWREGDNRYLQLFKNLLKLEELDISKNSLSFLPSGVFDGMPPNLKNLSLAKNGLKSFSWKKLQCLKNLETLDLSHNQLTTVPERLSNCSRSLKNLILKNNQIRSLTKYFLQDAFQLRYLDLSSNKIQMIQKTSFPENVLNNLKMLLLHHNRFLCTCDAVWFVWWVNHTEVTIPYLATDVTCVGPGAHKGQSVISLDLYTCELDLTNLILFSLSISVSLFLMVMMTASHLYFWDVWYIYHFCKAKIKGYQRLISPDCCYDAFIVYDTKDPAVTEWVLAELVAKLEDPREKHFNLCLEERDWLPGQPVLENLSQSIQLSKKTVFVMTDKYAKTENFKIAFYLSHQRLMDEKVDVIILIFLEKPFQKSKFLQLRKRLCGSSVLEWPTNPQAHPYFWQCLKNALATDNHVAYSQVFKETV
Procedure: (§1) Effect Example 1: Activation Activity Test of hTLR7 and hTLR8
(§2) Cell lines: HEK-Blue™ hTLR7 and HEK-Blue™ hTLR8 (InvivoGen Co.)
(§3) Primary reagents: QUANTI-Blue™ (InvivoGen) and ATPlite 1 Step (PerkinElmer)
(§4) Primary instruments: Automatic Liquid Handling Workstation (Labcyte, Model: Echo), Cell Counter (Countstar, IC1000) and Multifunctional Enzyme Marker (Molecular Device, Flexstation III).
(§5) 2.1 The tested compounds were formulated into a 60 mM concentrated stock solution in DMSO and stored in a nitrogen cabinet.
(§6) 2.3 The T150 cultured cells were taken out from the CO2 incubator and the cell culture supernatant was discarded. The cells were washed with PBS once, followed by addition of about 10 mL of the culture solution. The cells were dissociated by patting the cell culture flask, and gently blown to even by a pipette.
(§7) The cells were counted, and the cell suspension was adjusted to 200,000 cells/mL by the culture solution. Thereafter, 200 μL of diluted cells was added to each well in a 96-well plate containing the compound (40,000 cells/well).
(§8) 2.4 The compounds and cells were incubated in a 5% CO2 incubator at 37° C. for 24 hours.
(§9) 2.5 Compound activity assay: 20 μl of the cell supernatant of each well after induction was added to a cell culture plate containing 180 μL of reagent QUANTI-Blue™, and incubated at 37° C. for 1.5 hours. Thereafter, the optical density absorption (OD650) of each well at 650 nm was measured using a Multifunctional Enzyme Marker: Flexstation III.
(§10) 2.6 Compound Activity: OD650 values were analyzed using GraphPad Prism software and the dose-response curves for the compound were fitted to calculate the EC50 values of the compound.

hTLR8 = target: T2, hTLR8 (Homo sapiens, UniProt Q9NR97); assay: Activation activity test of hTLR8 (HEK-Blue hTLR8 cells, QUANTI-Blue OD650); assay type: cell-based; details: HEK-Blue hTLR8 cells, 24 hours incubation; read-out: TLR8 (EC50)
T2 construct: host or cells: HEK-Blue hTLR8 (HEK293-derived reporter line)
T2 sequence (Q9NR97 27-1041): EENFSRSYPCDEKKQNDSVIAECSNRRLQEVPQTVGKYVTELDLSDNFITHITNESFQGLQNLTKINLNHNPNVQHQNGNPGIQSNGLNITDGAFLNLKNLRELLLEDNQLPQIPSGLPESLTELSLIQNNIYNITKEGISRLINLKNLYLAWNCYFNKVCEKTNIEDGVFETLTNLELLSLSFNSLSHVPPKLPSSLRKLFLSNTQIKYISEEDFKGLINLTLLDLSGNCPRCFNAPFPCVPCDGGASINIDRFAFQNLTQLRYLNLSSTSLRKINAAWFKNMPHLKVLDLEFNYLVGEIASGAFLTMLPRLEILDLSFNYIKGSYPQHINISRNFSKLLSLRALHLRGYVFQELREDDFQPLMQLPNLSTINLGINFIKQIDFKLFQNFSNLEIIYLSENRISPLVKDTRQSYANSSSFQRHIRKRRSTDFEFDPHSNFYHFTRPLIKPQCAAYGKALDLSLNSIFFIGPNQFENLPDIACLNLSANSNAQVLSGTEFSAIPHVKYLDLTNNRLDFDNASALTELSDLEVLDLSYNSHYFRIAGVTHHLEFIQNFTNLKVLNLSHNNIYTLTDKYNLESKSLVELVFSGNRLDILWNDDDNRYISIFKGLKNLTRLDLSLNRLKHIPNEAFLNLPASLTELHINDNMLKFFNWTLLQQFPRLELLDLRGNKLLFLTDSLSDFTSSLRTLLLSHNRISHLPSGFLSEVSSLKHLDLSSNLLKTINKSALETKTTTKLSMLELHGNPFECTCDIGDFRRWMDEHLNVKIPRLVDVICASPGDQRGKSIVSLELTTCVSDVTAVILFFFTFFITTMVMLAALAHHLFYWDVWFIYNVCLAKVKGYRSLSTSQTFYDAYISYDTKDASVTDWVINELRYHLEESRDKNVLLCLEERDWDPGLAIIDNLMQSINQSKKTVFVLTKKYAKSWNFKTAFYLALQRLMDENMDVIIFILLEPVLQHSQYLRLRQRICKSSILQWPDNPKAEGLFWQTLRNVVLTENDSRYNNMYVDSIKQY
Procedure: as §1, §2, §3, §4, §5, §6, §7, §8, §9, §10

EC50 (hTLR7) [µM]	EC50 (hTLR8) [µM]	SMILES
10 to 100	> 100	COCCOc1ncc2[nH]c(=O)n(Cc3cccc(CN4CCC[C@@H]4C(=O)OC)c3)c2n1 [Example 23, methyl (3-((2-(2-methoxyethoxy)-8-oxo-7,8-dihydro-9H-purin-9-yl)methyl)benzyl)-D-pyrrolidine-2-carboxylate]
> 100	> 100	COCCOc1ncc2[nH]c(=O)n(Cc3cccc(CN4CCC[C@H]4C(=O)OC)c3)c2n1 [Example 24, methyl (3-((2-(2-methoxyethoxy)-8-oxo-7,8-dihydro-9H-purin-9-yl)methyl)benzyl)-L-pyrrolidine-2-carboxylate]
10 to 100	> 100	COCCOc1ncc2[nH]c(=O)n(Cc3cccc(CN4CCN(C)CC4)c3)c2n1 [Example 25, 2-(2-methoxyethoxy)-9-(3-((4-methylpiperazin-1-yl)methyl)benzyl)-7,9-dihydro-8H-purin-8-one]
10 to 100	> 100	COCCOc1ncc2[nH]c(=O)n(Cc3cccc(C(C)N4CCCC4)c3)c2n1 (centres unmarked) [Example 26, 2-(2-methoxyethoxy)-9-(3-(1-(pyrrolidin-1-yl)ethyl)benzyl)-7,9-dihydro-8H-purin-8-one]
> 100	> 100	O=c1[nH]c2cnc(OCC3CCOCC3)nc2n1Cc1cccc(CN2CCCC2)c1 [Example 28, 9-(3-(pyrrolidin-1-ylmethyl)benzyl)-2-((tetrahydro-2H-pyran-4-yl)methoxy)-7,9-dihydro-8H-purin-8-one]
> 100	> 100	O=c1[nH]c2cnc(OCCC3CC3)nc2n1Cc1cccc(CN2CCCC2)c1 [Example 29, 2-(2-cyclopropylethoxy)-9-(3-(pyrrolidin-1-ylmethyl)benzyl)-7,9-dihydro-8H-purin-8-one]
> 100	> 100	COCCOCCOc1ncc2[nH]c(=O)n(Cc3cccc(CN4CCCC4)c3)c2n1 [Example 30, 2-(2-(2-methoxyethoxy)ethoxy)-9-(3-(pyrrolidin-1-ylmethyl)benzyl)-7,9-dihydro-8H-purin-8-one]
> 100	> 100	COCCNc1ncc2[nH]c(=O)n(Cc3cccc(CN4CCCC4)c3)c2n1 [Example 32, 2-((2-methoxyethyl)amine)-9-(3-(pyrrolidin-1-ylmethyl)benzyl)-7,9-dihydro-8H-purin-8-one]
1 to 10	> 100	CCOCCOc1ncc2[nH]c(=O)n(Cc3ccc(CN4CCCC4)cc3)c2n1 [Example 37, 2-(2-ethoxyethoxy)-9-(4-(pyrrolidin-1-ylmethyl)benzyl)-7,9-dihydro-8H-purin-8-one]
10 to 100	> 100	O=c1[nH]c2cnc(OCCO)nc2n1Cc1ccc(CN2CCCC2)cc1 [Example 38, 2-(2-hydroxyethoxy)-9-(4-(pyrrolidin-1-ylmethyl)benzyl)-7,9-dihydro-8H-purin-8-one]
0.001 to 1	> 100	COCCOc1ncc2[nH]c(=O)n(Cc3ccc([C@H](C)N4CCCC4)cc3)c2n1 [Example 41, (S)-2-(2-methoxyethoxy)-9-(4-(1-(pyrrolidin-1-yl)ethyl)benzyl)-7,9-dihydro-8H-purin-8-one]
0.001 to 1	> 100	COCCOc1ncc2[nH]c(=O)n(Cc3ccc([C@@H](C)N4CCCC4)cc3)c2n1 [Example 42, (R)-2-(2-methoxyethoxy)-9-(4-(1-(pyrrolidin-1-yl)ethyl)benzyl)-7,9-dihydro-8H-purin-8-one]
0.001 to 1	> 100	COCCCOc1ncc2[nH]c(=O)n(Cc3ccc(CN4CCCC4)cc3)c2n1 [Example 45, 9-(4-(pyrrolidin-1-ylmethyl)benzyl)-2-(3-methoxypropoxy)-7,9-dihydro-8H-purin-8-one]

The remaining lines, values behind:

SMILES	EC50 (hTLR7) [µM]	EC50 (hTLR8) [µM]
CCCCOc1ncc2[nH]c(=O)n(Cc3cccc(CN4CCCC4)c3)c2n1 [Example 27, 2-butoxy-9-(3-(pyrrolidin-1-ylmethyl)benzyl)-7,9-dihydro-8H-purin-8-one]	> 100	10 to 100
CCCCNc1ncc2[nH]c(=O)n(Cc3cccc(CN4CCCC4)c3)c2n1 [Example 31, 2-(butylamino)-9-(3-(pyrrolidin-1-ylmethyl)benzyl)-7,9-dihydro-8H-purin-8-one]	> 100	> 100
CCCCSc1ncc2[nH]c(=O)n(Cc3cccc(CN4CCCC4)c3)c2n1 [Example 33, 2-butylthio-9-(3-(pyrrolidin-1-ylmethyl)benzyl)-7,9-dihydro-8H-purin-8-one]	> 100	> 100
CCCC[S+]([O-])c1ncc2[nH]c(=O)n(Cc3cccc(CN4CCCC4)c3)c2n1 (centres unmarked) [Example 34, 2-butylsulfinyl-9-(3-(pyrrolidin-1-ylmethyl)benzyl)-7,9-dihydro-8H-purin-8-one]	> 100	> 100
CCCCS(=O)(=O)c1ncc2[nH]c(=O)n(Cc3cccc(CN4CCCC4)c3)c2n1 [Example 35, 2-butylsulfonyl-9-(3-(pyrrolidin-1-ylmethyl)benzyl)-7,9-dihydro-8H-purin-8-one]	> 100	> 100
COCCOc1ncc2[nH]c(=O)n(C(C)c3ccc(CN4CCCC4)cc3)c2n1 (centres unmarked) [Example 36]	10 to 100	> 100
COCCOc1cc2c(cn1)[nH]c(=O)n2Cc1ccc(CN2CCCC2)cc1 [Example 39, 6-(2-methoxyethoxy)-1-(4-(pyrrolidin-1-ylmethyl)benzyl)-1,3-dihydro-2H-imidazole-[4,5-c]pyridin-2-one]	10 to 100	> 100
COCCOc1ccc2[nH]c(=O)n(Cc3ccc(CN4CCCC4)cc3)c2n1 [Example 40, 5-(2-methoxyethoxy)-3-(4-(pyrrolidin-1-ylmethyl)benzyl)-1,3-dihydro-2H-imidazole[4,5-b]pyridin-2-one]	> 100	> 100
O=c1[nH]c2cnc(OCCOC(F)(F)F)nc2n1Cc1ccc(CN2CCCC2)cc1 [Example 43]	0.001 to 1	> 100

From US11084818B2 (HEPO PHARMACEUTICAL CO., LTD., priority 2016, dated 2021)
